# Test results from US20250296971A1, “GASTRIC INHIBITORY PEPTIDE RECEPTOR LIGANDS” (priority 2021, published 2025).
# Where two headings read alike, the source gives them in different places. *1 amine or outer side, *2 acyl side, *3 side chain or, on linkers, in order; H or OH if unused. Where a SMILES comes first, the peptide text is derived from it. Bridges are numbered along the chain shown (N, C = ends). [ ]: non-standard residue; d: D form. The star is where a group is joined. X5 = NC(=O)[C@H](CCCCNC(=O)CN1CCN(CC(=O)O)CCN(CC(=O)O)CCN(CC(=O)O)CC1)NC(=O)CCC(=O)NCCCOCCOCCOCCCN*; X3 = O=C(O)CN1CCN(CC(=O)O)CCN(CC(=O)NCCCOCCOCCOCCCN*)CCN(CC(=O)O)CC1; NH(1-deoxy-D-glucityl) = OC[C@@H](O)[C@@H](O)[C@H](O)[C@@H](O)CN*; DOTA = O=C(O)CN1CCN(CC(=O)O)CCN(CC(=O)*)CCN(CC(=O)O)CC1; Propanoyl(3-(1-naphthyl)) = O=C(CCc1cccc2ccccc12)*; Trp(5-Br) = N[C@@H](Cc1c[nH]c2ccc(Br)cc12)C(=O)O; Trp(5-Cl) = N[C@@H](Cc1c[nH]c2ccc(Cl)cc12)C(=O)O; Phe(3,5-Cl2) = N[C@@H](Cc1cc(Cl)cc(Cl)c1)C(=O)O; Pyridine(2,6-diCH2) = c1cc(C[*:1])nc(C[*:2])c1; Pro(4R-NH2) = N[C@H]1CN[C@H](C(=O)O)C1; 1Nal = N[C@@H](Cc1cccc2ccccc12)C(=O)O; mXylylene = c1cc(C[*:1])cc(C[*:2])c1; Bta = N[C@@H](Cc1csc2ccccc12)C(=O)O; Glutaryl = O=C(CCCC(=O)[*:2])[*:1]; Ser(ΨH,HPro) = O=C(O)[C@@H]1COCN1; X7 = c1cc(CSCCN[*:2])cc(C[*:1])c1; Hyp = O=C(O)[C@@H]1C[C@@H](O)CN1; X1 = O=C(CN1CCC(N[*:1])CC1)[*:2]; tBuAla = CC(C)(C)C[C@H](N)C(=O)O; αMeL = CC(C)C[C@](C)(N)C(=O)O; Suc = O=C(CCC(=O)[*:2])[*:1]; Api = NC1(C(=O)O)CCNCC1; Thp = NC1(C(=O)O)CCOCC1; Aib = CC(C)(N)C(=O)O
# Biological target: T1, GIPR (CHO-K1-hGIPR cells) (Homo sapiens, UniProt P48546)
# T1 construct: host or cells: CHO-K1
# T1 sequence (P48546 22-466): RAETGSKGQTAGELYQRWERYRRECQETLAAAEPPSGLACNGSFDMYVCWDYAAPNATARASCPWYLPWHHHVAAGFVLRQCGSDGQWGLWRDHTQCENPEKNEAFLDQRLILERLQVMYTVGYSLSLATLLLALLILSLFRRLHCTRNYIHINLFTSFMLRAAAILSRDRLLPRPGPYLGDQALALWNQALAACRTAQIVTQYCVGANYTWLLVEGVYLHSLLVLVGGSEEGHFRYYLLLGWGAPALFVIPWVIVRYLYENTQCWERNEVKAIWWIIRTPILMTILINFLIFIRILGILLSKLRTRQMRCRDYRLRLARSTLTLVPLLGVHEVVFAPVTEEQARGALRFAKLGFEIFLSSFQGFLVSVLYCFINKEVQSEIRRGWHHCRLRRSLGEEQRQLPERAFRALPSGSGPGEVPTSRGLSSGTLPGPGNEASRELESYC
# Test: FACS binding assay
# Conditions: read-out: pIC50 Category (converted)
# Procedure, shortened: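 Median fluorescence in the APC channel, measured on washed CHO-K1 cells overexpressing human GIPR, was fitted by four-parameter logistic regression against peptide concentration to yield EC50 or IC50 values. Secondary labelling used APC-streptavidin (1 μg/mL, 30 min, ice).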
# [1] = competition with 20 nM GIP-057, 4° C., 1 hour
# [2] = competition with 20 nM GIP-057, 4° C. for 1 hour
SMILES,IC50 [1] [nM],IC50 [2] [nM]
"CC[C@H](C)[C@@H]1NC(=O)[C@H](CC(C)C)NC(=O)C2(CCN(C(=O)CN3CCN(CC(=O)O)CCN(CC(=O)O)CCN(CC(=O)O)CC3)CC2)NC(=O)[C@@H](NC(=O)[C@@H](CC(C)C)NC(=O)[C@H](CCC(=O)O)NC(=O)[C@@H]2C[C@@H](N)CN2C(=O)[C@H](Cc2c[nH]c3ccc(Cl)cc23)NC(=O)[C@H](Cc2c[nH]c3ccccc23)NC(=O)[C@H](CC(=O)O)NC(=O)CCCC(=O)NC[C@H](O)[C@@H](O)[C@H](O)[C@H](O)CO)CSCc2cccc(n2)CSC[C@@H](C(=O)NC2CCN(CC(=O)N[C@H](CCC(=O)NC[C@H](O)[C@@H](O)[C@H](O)[C@H](O)CO)C(N)=O)CC2)NC1=O [GIP-052, AGLU-Glutar-Asp-Trp-5Clw-Tap-Glu-leu-[cys(2Lut)-Apc(DOTA)-Leu-Ile-cys]-APAc-glu(AGLU)-NH2] ({NH(1-deoxy-D-glucityl)-Glutaryl}-DW[Trp(5-Cl)][Pro(4R-NH2)]E[dL]C[Api](DOTA)LIC[X1][dE](NH(1-deoxy-D-glucityl))-NH2; linker 7-11 via Pyridine(2,6-diCH2))",10 to 79.4,–
"CC[C@H](C)[C@@H]1NC(=O)[C@H](CC(C)C)NC(=O)C2(CCOCC2)NC(=O)[C@@H](NC(=O)[C@@H](CC(C)C)NC(=O)[C@H](CCC(=O)O)NC(=O)[C@@H]2COCN2C(=O)[C@H](Cc2c[nH]c3ccc(Cl)cc23)NC(=O)[C@H](Cc2c[nH]c3ccccc23)NC(=O)[C@H](CC(=O)O)NC(C)=O)CSCc2cccc(n2)CSC[C@@H](C(N)=O)NC1=O [GIP-216, Ac-Asp-Trp-5Clw-Oxa-Glu-leu-[Cys(2Lut)-Thp-Leu-Ile-Cys]-NH2] (Ac-DW[Trp(5-Cl)][Ser(ΨH,HPro)]E[dL]C[Thp]LIC-NH2; linker 7-11 via Pyridine(2,6-diCH2))",< 10,–
"CC[C@H](C)[C@@H]1NC(=O)[C@H](CC(C)C)NC(=O)C(C)(C)NC(=O)[C@@H](NC(=O)[C@H](CC(C)(C)C)NC(=O)[C@H](CCC(=O)O)NC(=O)[C@@H]2CCCN2C(=O)[C@H](Cc2c[nH]c3ccccc23)NC(=O)[C@H](Cc2c[nH]c3ccccc23)NC(=O)[C@H](CC(=O)O)NC(C)=O)CSCc2cccc(c2)CSC[C@@H](C(=O)NCCCOCCOCCOCCCNC(=O)CCC(=O)N[C@@H](CCCCNC(=O)CN2CCN(CC(=O)O)CCN(CC(=O)O)CCN(CC(=O)O)CC2)C(N)=O)NC1=O [GIP-132, Ac-Asp-Trp-Trp-Pro-Glu-Npg-[Cys(3MeBn)-Aib-Leu-Ile-Cys]-Ttds-Lys(DOTA)-NH2] (Ac-DWWPE[tBuAla]C[Aib]LIC-X5; linker 7-11 via mXylylene)",10 to 79.4,–
"CC(=O)N[C@@H](CC(=O)O)C(=O)N[C@@H](Cc1c[nH]c2ccccc12)C(=O)N[C@@H](Cc1c[nH]c2ccc(Cl)cc12)C(=O)N1C[C@H](O)C[C@H]1C(=O)N[C@@H](CCC(=O)O)C(=O)N[C@H](CC(C)C)C(=O)N[C@H]1CSCc2cccc(n2)CSC[C@@H](C(N)=O)NC(=O)[C@H](CC(C)C)NC(=O)[C@H](CC(C)C)NC(=O)C2(CCOCC2)NC1=O [GIP-237, Ac-Asp-Trp-5Clw-Hyp-Glu-leu-[Cys(2Lut)-Thp-Leu-Leu-Cys]-NH2] (Ac-DW[Trp(5-Cl)][Hyp]E[dL]C[Thp]LLC-NH2; linker 7-11 via Pyridine(2,6-diCH2))",< 10,–
"CC[C@H](C)[C@@H]1NC(=O)[C@H](CC(C)C)NC(=O)C2(CCOCC2)NC(=O)[C@@H](NC(=O)[C@@H](CC(C)C)NC(=O)[C@H](CCC(=O)O)NC(=O)[C@@H]2C[C@@H](O)CN2C(=O)[C@H](Cc2cc(Cl)cc(Cl)c2)NC(=O)[C@H](Cc2c[nH]c3ccccc23)NC(=O)[C@H](CC(=O)O)NC(=O)CCC(=O)NCCCOCCOCCOCCCNC(=O)CN2CCN(CC(=O)O)CCN(CC(=O)O)CCN(CC(=O)O)CC2)CSCc2cccc(n2)CSC[C@@H](C(N)=O)NC1=O [GIP-401, DOTA-Ttds-Asp-Trp-Egn-Hyp-Glu-leu-[Cys(2Lut)-Thp-Leu-Ile-Cys]-NH2] ({X3-Suc}-DW[Phe(3,5-Cl2)][Hyp]E[dL]C[Thp]LIC-NH2; linker 7-11 via Pyridine(2,6-diCH2))",–,10 to 79.4
"CC[C@H](C)[C@@H]1NC(=O)[C@H](CC(C)C)NC(=O)C(C)(C)NC(=O)[C@@H](NC(=O)[C@H](CC(C)C)NC(=O)[C@H](CCC(=O)O)NC(=O)[C@@H]2CCCN2C(=O)CCc2cccc3ccccc23)CSCc2cccc(c2)CSC[C@@H](C(=O)NCCCOCCOCCOCCCNC(=O)CCC(=O)N[C@@H](CCCCNC(=O)CN2CCN(CC(=O)O)CCN(CC(=O)O)CCN(CC(=O)O)CC2)C(N)=O)NC1=O [GIP-299, Nph1p-Pro-Glu-Leu-[Cys(3MeBn)-Aib-Leu-Ile-Cys]-Ttds-Lys(DOTA)-NH2] ({Propanoyl(3-(1-naphthyl))}-PELC[Aib]LIC-X5; linker 4-8 via mXylylene)",–,> 1000
"CC[C@H](C)[C@@H]1NC(=O)[C@H](CC(C)C)NC(=O)C(C)(C)NC(=O)[C@@H](NC(=O)[C@](C)(CC(C)C)NC(=O)[C@H](CCC(=O)O)NC(=O)[C@@H]2CCCN2C(=O)[C@H](Cc2c[nH]c3ccccc23)NC(=O)[C@H](Cc2c[nH]c3ccccc23)NC(=O)[C@H](CC(=O)O)NC(C)=O)CSCc2cccc(c2)CSC[C@@H](C(=O)NCCCOCCOCCOCCCNC(=O)CCC(=O)N[C@@H](CCCCNC(=O)CN2CCN(CC(=O)O)CCN(CC(=O)O)CCN(CC(=O)O)CC2)C(N)=O)NC1=O [GIP-296, Ac-Asp-Trp-Trp-Pro-Glu-Aml-[Cys(3MeBn)-Aib-Leu-Ile-Cys]-Ttds-Lys(DOTA)-NH2] (Ac-DWWPE[αMeL]C[Aib]LIC-X5; linker 7-11 via mXylylene)",–,> 1000
"CC[C@H](C)[C@@H]1NC(=O)[C@H](CC(C)C)NC(=O)C2(CCN(C(=O)CN3CCN(CC(=O)O)CCN(CC(=O)O)CCN(CC(=O)O)CC3)CC2)NC(=O)[C@@H](NC(=O)[C@@H](CC(C)C)NC(=O)[C@H](CCC(=O)O)NC(=O)[C@@H]2C[C@@H](N)CN2C(=O)[C@H](Cc2c[nH]c3ccc(Br)cc23)NC(=O)[C@H](Cc2c[nH]c3ccccc23)NC(=O)[C@H](CC(=O)O)NC(=O)CCCC(=O)NC[C@H](O)[C@@H](O)[C@H](O)[C@H](O)CO)CSCc2cccc(n2)CSC[C@@H](C(=O)NC2CCN(CC(=O)N[C@H](CCC(=O)NC[C@H](O)[C@@H](O)[C@H](O)[C@H](O)CO)C(N)=O)CC2)NC1=O [GIP-015, AGLU-Glutar-Asp-Trp-5Brw-Tap-Glu-leu-[Cys(2Lut)-Apc(DOTA)-Leu-Ile-Cys]-APAc-glu(AGLU)-NH2] ({NH(1-deoxy-D-glucityl)-Glutaryl}-DW[Trp(5-Br)][Pro(4R-NH2)]E[dL]C[Api](DOTA)LIC[X1][dE](NH(1-deoxy-D-glucityl))-NH2; linker 7-11 via Pyridine(2,6-diCH2))",< 10,–
"CC[C@H](C)[C@@H]1NC(=O)[C@H](CC(C)C)NC(=O)C(C)(C)NC(=O)[C@@H](NC(=O)[C@H](CC(C)C)NC(=O)[C@H](CCC(=O)O)NC(=O)[C@@H]2CCCN2C(=O)[C@H](Cc2c[nH]c3ccccc23)NC(=O)[C@H](Cc2csc3ccccc23)NC(=O)[C@H](CC(=O)O)NC(C)=O)CSCc2cccc(c2)CSC[C@@H](C(=O)NCCCOCCOCCOCCCNC(=O)CCC(=O)N[C@@H](CCCCNC(=O)CN2CCN(CC(=O)O)CCN(CC(=O)O)CCN(CC(=O)O)CC2)C(N)=O)NC1=O [GIP-273, Ac-Asp-Bta-Trp-Pro-Glu-Leu-[Cys(3MeBn)-Aib-Leu-Ile-Cys]-Ttds-Lys(DOTA)-NH2] (Ac-D[Bta]WPELC[Aib]LIC-X5; linker 7-11 via mXylylene)",–,100 to 794
"CC[C@H](C)[C@@H]1NC(=O)[C@H](CC(C)C)NC(=O)C2(CCOCC2)NC(=O)[C@@H](NC(=O)[C@@H](CC(C)C)NC(=O)[C@H](CCC(=O)O)NC(=O)[C@@H]2CCCN2C(=O)[C@H](Cc2c[nH]c3ccc(Cl)cc23)NC(=O)[C@H](Cc2c[nH]c3ccccc23)NC(=O)[C@H](CC(=O)O)NC(=O)CCC(=O)NCCCOCCOCCOCCCNC(=O)CN2CCN(CC(=O)O)CCN(CC(=O)O)CCN(CC(=O)O)CC2)CSCc2cccc(c2)CSCCNC1=O [GIP-087, DOTA-Ttds-Asp-Trp-5Clw-Pro-Glu-leu-[Cys(3MeBn)-Thp-Leu-Ile-AET]] ({X3-Suc}-DW[Trp(5-Cl)]PE[dL]C[Thp]LI; linker 7-C via X7)",< 10,–
CC[C@H](C)[C@@H]1NC(=O)[C@H](CC(C)C)NC(=O)[C@H](C)NC(=O)[C@@H](NC(=O)[C@H](CC(C)C)NC(=O)[C@H](CCC(=O)O)NC(=O)[C@@H]2CCCN2C(=O)[C@H](Cc2c[nH]c3ccccc23)NC(=O)[C@H](Cc2c[nH]c3ccccc23)NC(=O)[C@H](CC(=O)O)NC(=O)[C@H](Cc2ccc(O)cc2)NC(=O)[C@@H](N)CCSC)CSCc2cccc(c2)CSC[C@@H](C(N)=O)NC1=O [GIP-254] (H-MYDWWPELCALIC-NH2; linker 9-13 via mXylylene),–,10 to 79.4
"CC(=O)N[C@@H](CC(=O)O)C(=O)N[C@@H](Cc1c[nH]c2ccccc12)C(=O)N[C@@H](Cc1cccc2ccccc12)C(=O)N1CCC[C@H]1C(=O)N[C@@H](CCC(=O)O)C(=O)N[C@H](CC(C)C)C(=O)N[C@H]1CSCc2cccc(c2)CSC[C@@H](C(=O)NCCCOCCOCCOCCCNC(=O)CCC(=O)N[C@@H](CCCCNC(=O)CN2CCN(CC(=O)O)CCN(CC(=O)O)CCN(CC(=O)O)CC2)C(N)=O)NC(=O)[C@@H](C(C)C)NC(=O)[C@H](CC(C)C)NC(=O)[C@H](C)NC1=O [GIP-300, Ac-Asp-Trp-1Ni-Pro-Glu-leu-[Cys(3MeBn)-Ala-Leu-val-Cys]-Ttds-Lys(DOTA)-NH2] (Ac-DW[1Nal]PE[dL]CAL[dV]C-X5; linker 7-11 via mXylylene)",–,> 1000
